Data published in paper PMC7216583 (Parasites & Vectors, 2020).
Counter-ions that a name gives are not always drawn. Like-named read-outs stand apart in the source and are kept apart here.

What was measured:
HPDE4 = system: HPDE4; set-up: method as in S-inhibitor; details: ref S-inhibitor; cited from earlier work
[1] = system: Toxoplasma gondii RH-2F tachyzoites; test: microbe, parasite or virus in culture; details: 72 h
LPDE4 = system: LPDE4; set-up: method as in S-inhibitor; details: ref S-inhibitor; cited from earlier work
Bcl-w = target: Bcl-w; set-up: method as in library vendor description; details: ref library vendor description; cited from earlier work
ROCK2 = system: ROCK2; set-up: method as in S-inhibitor; details: ref S-inhibitor; cited from earlier work
ROCK1 = system: ROCK1; set-up: method as in S-inhibitor; details: ref S-inhibitor; cited from earlier work
HCV polymerase = target: HCV polymerase; set-up: method as in S-inhibitor; details: ref S-inhibitor; cited from earlier work
[2] = target: farnesyltransferase (FTase); set-up: method as in S-inhibitor; details: ref S-inhibitor; cited from earlier work
microtubule [3] = system: microtubule; set-up: method as in library vendor description; details: ref library vendor description; cited from earlier work
KSP (HsEg5) = target: KSP (HsEg5); set-up: method as in S-inhibitor; details: ref S-inhibitor; cited from earlier work
PDGFRβ = target: PDGFRβ; set-up: method as in S-inhibitor; details: ref S-inhibitor; cited from earlier work
Flk-1/KDR = target: Flk-1/KDR; set-up: method as in S-inhibitor; details: ref S-inhibitor; cited from earlier work
ROCK = system: ROCK; set-up: method as in S-inhibitor; details: ref S-inhibitor; cited from earlier work
[4] = system: human foreskin fibroblasts (HFFs)
VEGFR3 = system: VEGFR3; set-up: method as in library vendor description; details: ref library vendor description; cited from earlier work
Ron = system: Ron; set-up: method as in library vendor description; details: ref library vendor description; cited from earlier work
Tie2 = system: Tie2; set-up: method as in library vendor description; details: ref library vendor description; cited from earlier work
VEGFR1 = system: VEGFR1; set-up: method as in library vendor description; details: ref library vendor description; cited from earlier work
[5] = system: Toxoplasma gondii RH-2F tachyzoites; details: preliminary screen, mean
HIV-I integrase (IN) = target: HIV-I integrase (IN); set-up: method as in S-inhibitor; details: ref S-inhibitor; cited from earlier work
IKKε = system: IKKε; set-up: method as in library vendor description; details: ref library vendor description; cited from earlier work
TBK1 = system: TBK1; set-up: method as in library vendor description; details: ref library vendor description; cited from earlier work
PDK-1 = system: PDK-1; set-up: method as in library vendor description; details: ref library vendor description; read-out: IC50 PDK-1; cited from earlier work
JAK1 = details: read-out: IC50, JAK1; ref S-inhibitor; cited from earlier work
JAK3 = details: read-out: IC50, JAK3; ref S-inhibitor; cited from earlier work
sterol C14ɑ demethylase = target: sterol C14ɑ demethylase; set-up: method as in library vendor description; details: ref library vendor description; cited from earlier work
Aurora B = system: Aurora B; set-up: method as in S-inhibitor; details: ref S-inhibitor; cited from earlier work
Aurora C = system: Aurora C; set-up: method as in S-inhibitor; details: ref S-inhibitor; cited from earlier work
in vitro = details: human, Host viability (%) mean
HDAC3 = system: HDAC3; set-up: method as in S-inhibitor; details: ref S-inhibitor; cited from earlier work
HDAC8 = system: HDAC8; set-up: method as in S-inhibitor; details: ref S-inhibitor; cited from earlier work
c-Raf = system: c-Raf; set-up: method as in library vendor description; details: ref library vendor description; cited from earlier work
c-Kit [6] = system: c-Kit; set-up: method as in library vendor description; details: ref library vendor description; cited from earlier work
KDR = system: KDR; set-up: method as in library vendor description; details: ref library vendor description; cited from earlier work
Lck = system: Lck; set-up: method as in library vendor description; details: ref library vendor description; cited from earlier work
CSF-1R = system: CSF-1R; set-up: method as in library vendor description; details: ref library vendor description; cited from earlier work
Flt = system: Flt; set-up: method as in library vendor description; details: ref library vendor description; cited from earlier work
mTORC1 = system: mTORC1; set-up: method as in library vendor description; details: ref library vendor description; cited from earlier work
mTORC2 = system: mTORC2; set-up: method as in library vendor description; details: ref library vendor description; cited from earlier work
Endothelin A (ETA) = system: Endothelin A (ETA); set-up: method as in S-inhibitor; details: ref S-inhibitor; cited from earlier work
microtubule [7] = system: microtubule; set-up: method as in S-inhibitor; details: ref S-inhibitor; cited from earlier work
c-Kit [8] = system: c-Kit; set-up: method as in S-inhibitor; details: ref S-inhibitor; cited from earlier work
VEGFR2 = system: VEGFR2; set-up: method as in S-inhibitor; details: ref S-inhibitor; cited from earlier work
PDGFRα = system: PDGFRα; set-up: method as in S-inhibitor; details: ref S-inhibitor; cited from earlier work
MAO-B = system: MAO-B; set-up: method as in S-inhibitor; details: ref S-inhibitor; cited from earlier work
Aβ40 = system: Aβ40; set-up: method as in library vendor description; details: γ-secretase inhibitor; ref library vendor description; cited from earlier work
Aβ42 = system: Aβ42; set-up: method as in library vendor description; details: γ-secretase inhibitor; ref library vendor description; cited from earlier work
PI3Kβ = system: PI3Kβ; set-up: method as in library vendor description; details: ref library vendor description; cited from earlier work
PI3Kδ = system: PI3Kδ; set-up: method as in library vendor description; details: ref library vendor description; cited from earlier work
PI3Kγ = system: PI3Kγ; set-up: method as in library vendor description; details: ref library vendor description; cited from earlier work
mTOR = system: mTOR; set-up: method as in library vendor description; details: ref library vendor description; cited from earlier work
PI3Kα = system: PI3Kα; set-up: method as in library vendor description; details: ref library vendor description; cited from earlier work
[9] = read-out: Parasite inhibition (%) mean, preliminary screen, mean

Molecule: COc1ccc(C2(C#N)CCC(C(=O)O)CC2)cc1OC1CCCC1 (centres unmarked) [Cilomilast (SB-207499)]
- IC50 (HPDE4): 120 nM
- inhibition of growth at 5 µM [1, 9]: 65.2%
- IC50 (LPDE4): 100 nM

Molecule: CC1(C)CCC(c2ccc(Cl)cc2)=C(CN2CCN(c3ccc(C(=O)NS(=O)(=O)c4ccc(N[C@H](CCN5CCOCC5)CSc5ccccc5)c(S(=O)(=O)C(F)(F)F)c4)cc3)CC2)C1 [ABT-263 (Navitoclax)]
- Ki (Bcl-w): ≤ 1 nM
- inhibition of growth at 5 µM [1, 9]: 33.5%

Molecule: CC1=C(C(=O)Nc2cc3cn[nH]c3cc2F)C(c2ccc(C(F)(F)F)cc2)CC(=O)N1 (centres unmarked) [GSK429286A]
- IC50 (ROCK2): 63 nM
- IC50 (ROCK1): 14 nM
- inhibition of growth at 5 µM [1, 9]: 0.9%

Molecule: CC(C)(C)C#Cc1cc(N(C(=O)[C@H]2CC[C@H](C)CC2)[C@H]2CC[C@H](O)CC2)c(C(=O)O)s1 [VX-222]
- IC50 (HCV polymerase): 940 to 1200 nM
- inhibition of growth at 5 µM [1, 9]: 9.6%

Molecule: Cn1cncc1[C@@](N)(c1ccc(Cl)cc1)c1ccc2c(c1)c(-c1cccc(Cl)c1)cc(=O)n2C [Tipifarnib (Zarnestra)]
- inhibition of growth at 5 µM [1, 9]: 6.5%
- IC50 [2]: 0.6 nM

Molecule: C/C(=C\c1csc(C)n1)[C@@H]1C[C@@H]2O[C@@H]2CCC[C@H](C)[C@H](O)[C@@H](C)C(=O)C(C)(C)[C@@H](O)CC(=O)O1 [Epothilone A]
- EC0.01 microtubule-stabilizing (microtubule [3]): Epothilone A is a Taxol-like microtubule-stabilizing agent with EC0.01 of 2 μM.
- inhibition of growth at 5 µM [1, 9]: 20.4%

Molecule: Cc1ccc(C(=O)N(CCCN)[C@@H](c2nc3cc(Cl)ccc3c(=O)n2Cc2ccccc2)C(C)C)cc1 [Ispinesib (SB-715992)]
- Ki (KSP (HsEg5)): 1.7 nM
- inhibition of growth at 5 µM [1, 9]: 2.1%

Molecule: Cc1[nH]c(/C=C2\C(=O)Nc3ccccc32)c(C)c1CCC(=O)O [TSU-68 (SU6668)]
- inhibition of growth at 5 µM [1, 9]: 2.8%
- Ki (PDGFRβ): 8 nM
- Ki (Flk-1/KDR): 2100 nM

Molecule: O=C(NCc1ccccc1)c1csc(Nc2ccncn2)n1 [Thiazovivin]
- inhibition of growth at 5 µM [1, 9]: -0.7%
- IC50 (ROCK): ~500 nM

Molecule: MGCD-265
- Host viability (%) mean [4]: 68.1%
- IC50 (VEGFR3): 4 nM
- IC50 (Ron): 2 nM
- IC50 (Tie2): 7 nM
- IC50 (VEGFR1): 3 nM
- Parasite inhibition (%) mean [5]: 88.8%

Molecule: Cn1c(N2CCCCS2(=O)=O)nc(C(=O)NCc2ccc(F)cc2)c(O)c1=O [BMS-707035]
- IC50 (HIV-I integrase (IN)): 15 nM
- inhibition of growth at 5 µM [1, 9]: 0.2%

Molecule: O=C(NCCCNc1nc(Nc2cccc(NC(=O)N3CCCC3)c2)ncc1I)c1cccs1 [BX-795]
- IC50 (IKKε): 41 nM
- IC50 (TBK1): 6 nM
- IC50 (PDK-1): 111 nM
- inhibition of growth at 5 µM [1, 9]: 0.7%

Molecule: N#CC[C@H](C1CCCC1)n1cc(-c2ncnc3[nH]ccc23)cn1 [Ruxolitinib (INCB018424)]
- inhibition of growth at 5 µM [1, 9]: 10.2%

Molecule: CC[C@@H]([C@H](C)O)n1ncn(-c2ccc(N3CCN(c4ccc(OC[C@@H]5CO[C@@](Cn6cncn6)(c6ccc(F)cc6F)C5)cc4)CC3)cc2)c1=O [Posaconazole]
- inhibition of growth at 5 µM [1, 9]: 0.6%
- IC50 (sterol C14ɑ demethylase): 0.25 nM

Molecule: CCc1cccc(CC)c1NC(=O)N1Cc2n[nH]c(NC(=O)c3ccc(N4CCN(C)CC4)cc3)c2C1 [PHA-680632]
- IC50 (Aurora B): 135 nM
- IC50 (Aurora C): 120 nM
- viability at 72 h (in vitro): 45.2%
- inhibition of growth at 5 µM [1, 9]: 88.8%

Molecule: Cc1cc(Cl)ccc1OCCCC(=O)NO [Droxinostat]
- IC50 (HDAC3): 16900 nM
- IC50 (HDAC8): 1460 nM
- inhibition of growth at 5 µM [1, 9]: 7.2%

Molecule: O=C(Nc1ccc(OC(F)(F)F)cc1)c1sccc1NCc1ccnc2ccccc12 [OSI-930]
- IC50 (c-Raf): 41 nM
- IC50 (c-Kit [6]): 80 nM
- IC50 (KDR): 9 nM
- IC50 (Lck): 22 nM
- IC50 (CSF-1R): 15 nM
- inhibition of growth at 5 µM [1, 9]: 1%
- IC50 (Flt): 8 nM

Molecule: COc1ccc(-c2ccc3c(N4CCOCC4)nc(N4C[C@@H](C)O[C@@H](C)C4)nc3n2)cc1CO [Ku-0063794]
- inhibition of growth at 5 µM [1, 9]: 31.4%

Molecule: COc1nc(C)cnc1NS(=O)(=O)c1cccnc1-c1ccc(-c2nnco2)cc1 [Zibotentan (ZD4054)]
- IC50 (Endothelin A (ETA)): 21 nM
- inhibition of growth at 5 µM [1, 9]: 1.8%

Molecule: C/C(=C\c1csc(C)n1)[C@H]1C[C@@H]2O[C@]2(C)CCC[C@H](C)[C@H](O)[C@@H](C)C(=O)C(C)(C)[C@H](O)CC(=O)O1 [Epothilone B (EPO906)]
- inhibition of growth at 5 µM ([1]; read-out: Parasite inhibition (%) mean): 36.5%
- EC0.01, microtubule stabilization (microtubule [7]): Epothilone B is a Taxol-like microtubule-stabilizing agent with EC0.01 of 1.8 μM.

Molecule: COc1cc2nccc(Oc3ccc(NC(=O)Nc4ccc(F)cc4F)c(F)c3)c2cc1OC [Ki8751]
- IC50 (c-Kit [8]): 40 nM
- IC50 (VEGFR2): 0.9 nM
- inhibition of growth at 5 µM [1, 9]: -45.8%
- IC50 (PDGFRα): 67 nM

Molecule: C[C@H](NCc1ccc(OCc2cccc(F)c2)cc1)C(N)=O [Safinamide Mesylate (FCE28073)]
- inhibition of growth at 5 µM [1, 9]: 5.9%

Molecule: NC(=O)[C@@H](CCC(F)(F)F)N(Cc1ccc(-c2ncon2)cc1F)S(=O)(=O)c1ccc(Cl)cc1 [BMS-708163 (Avagacestat)]
- IC50 (Aβ40): 0.3 nM
- IC50 (Aβ42): 0.27 nM
- inhibition of growth at 5 µM [1, 9]: 8.7%

Molecule: O=C1NC(=O)/C(=C/c2ccc3nccc(-c4ccncc4)c3c2)S1 [GSK1059615]
- IC50 (PI3Kβ): 0.6 nM
- IC50 (PI3Kδ): 2 nM
- inhibition of growth at 5 µM [1, 9]: 40.6%
- IC50 (PI3Kγ): 5 nM
- IC50 (mTOR): 12 nM
- IC50 (PI3Kα): 0.4 nM
